Measurements published in patent US20100021903A1, “Use of Genetic Determinants in Cardiovascular Risk Assessment” (priority 2006, published 2010).

Columns and labels:
[1] = system: hypertensive patients with coronary artery disease; assay: INVEST-GENES cohort: primary and secondary cardiovascular outcomes (death, nonfatal MI, nonfatal stroke), Cox regression; details: for Incidence, Nonfatal MI / Incidence, Nonfatal Stroke / Incidence, Primary Outcome / Incidence, All-cause Mortality: crude incidence; for HR (95% CI) Atenolol vs. Verapamil, Nonfatal MI / HR (95% CI) Atenolol vs. Verapamil, Nonfatal Stroke / HR (95% CI) Atenolol vs. Verapamil, Primary Outcome: reduced model; for HR, KCNMB1 codon 110 (Leu110) variant allele on primary outcome, separately by treatment strategy: within patients randomized to the named drug
[2] = system: hypertensive patients with coronary artery disease; assay: Nested case-control study within INVEST-GENES: primary outcome, logistic regression; details: for SNP effect in arm (OR, 95% CI), Death / SNP effect in arm (OR, 95% CI), MI / SNP effect in arm (OR, 95% CI), Stroke: within treatment arm; for Total Number of Events: primary outcome; for OR, effect of CACNB2 rs2357928 genotype on the primary outcome, by treatment: within CCB-treated or β-blocker-treated patients; for OR, ALOX5 promoter polymorphism variant carriers, adverse cardiovascular outcomes, By Drug Therapy: within patients on the named drug
Text: The model contained the following baseline covariates used for primary INVEST analyses: age, sex, race/ethnicity, body mass index, smoking, INVEST treatment strategy, previous myocardial infarction, previous stroke, heart failure, diabetes, renal insufficiency, baseline systolic blood pressure, diuretic use, and ACE inhibitor use, plus codon 65 and 110 genotype, and the interaction term between genotype and strategy assignment.
Relationships between single nucleotide polymorphisms (SNP) and haplotypes of arachidonate 5-lipoxygenase pathway genes and cardiovascular events were tested. […] A haplotype of ALOX5AP and SNPs was genotyped in both LTC4S and LTA4H, encoding 5-lipoxygenase activating protein, leukotriene C4 synthase and leukotriene A4 hydrolase respectively. The effects of these variants on the primary outcome using the X^2 test and logistic regression was analyzed.
Pharmacogenetic relationships were tested between a polymorphism of the LTA4H gene which encodes leukotriene A4 hydrolase and cardiovascular events based on drug-treatment. […] The LTA4H SNP rs2660845 were genotyped and analyzed the effect and interaction of this variant with antihypertensive drug treatment on the primary outcome with the X^2 test and logistic regression.
There was minimal linkage disequilibrium in CACNA1C and CACNB2. 8 SNPs in CACNA1C were examined in the case-control group.

[3] = system: hypertensive patients with coronary artery disease; assay: Blood pressure response to atenolol and number of antihypertensive drugs needed to reach BP control by ADRB1/ADRB2 genotype
hypertensive subjects = details: Nguyen et al. 2000; cited from earlier work
[4] = primary outcome, 0 GGC (ADRB2 46G-79G-523C) copies
[5] = LTA4H rs2660845 G-carriers (n = 466)
[6] = Patients on Atenolol (N = 2,830)
[7] = Patients on Atenolol, number of patients

CC(C)NCC(O)COc1ccc(CC(N)=O)cc1 (stereo not drawn) [atenolol]
Incidence, Nonfatal MI ([1]; 0 copies ADRB2 46G-79G-523C): 3.5 per 1000 patient-years
Incidence, Nonfatal Stroke ([1]; 0 copies ADRB2 46G-79G-523C): 4.2 per 1000 patient-years
Incidence, Primary Outcome ([1]; 0 copies ADRB2 46G-79G-523C): 10.8 per 1000 patient-years
HR (95% CI) Atenolol vs. Verapamil, Nonfatal MI ([1]; 0 copies ADRB2 46G-79G-523C): 0.60 (0.31-1.16)
HR (95% CI) Atenolol vs. Verapamil, Nonfatal Stroke ([1]; 0 copies ADRB2 46G-79G-523C): 0.85 (0.44-1.62)
HR (95% CI) Atenolol vs. Verapamil, Primary Outcome ([1]; 0 copies ADRB2 46G-79G-523C): 0.60 (0.41-0.87)
Incidence, Nonfatal MI ([1]; 1 copy ADRB2 46G-79G-523C): 5.8 per 1000 patient-years
Incidence, Nonfatal Stroke ([1]; 1 copy ADRB2 46G-79G-523C): 4.8 per 1000 patient-years
HR (95% CI) Atenolol vs. Verapamil, Nonfatal MI ([1]; 1 copy ADRB2 46G-79G-523C): 1.94 (0.89-4.20)
HR (95% CI) Atenolol vs. Verapamil, Nonfatal Stroke ([1]; 1 copy ADRB2 46G-79G-523C): 1.01 (0.50-2.05)
HR (95% CI) Atenolol vs. Verapamil, Primary Outcome ([1]; 1 copy ADRB2 46G-79G-523C): 1.03 (0.69-1.54)
Incidence, Nonfatal MI ([1]; 2 copies ADRB2 46G-79G-523C): 9.1 per 1000 patient-years
Incidence, Nonfatal Stroke ([1]; 2 copies ADRB2 46G-79G-523C): 5.1 per 1000 patient-years
Incidence, Primary Outcome ([1]; 2 copies ADRB2 46G-79G-523C): 22.3 per 1000 patient-years
HR (95% CI) Atenolol vs. Verapamil, Nonfatal MI ([1]; 2 copies ADRB2 46G-79G-523C): 1.53 (0.51-4.57)
HR (95% CI) Atenolol vs. Verapamil, Nonfatal Stroke ([1]; 2 copies ADRB2 46G-79G-523C): 0.79 (0.22-2.81)
HR (95% CI) Atenolol vs. Verapamil, Primary Outcome ([1]; 2 copies ADRB2 46G-79G-523C): 1.35 (0.68-2.67)
HR, primary outcome, atenolol vs. verapamil SR ([1]; carriers (1 or 2 copies) of ADRB2 46G-79G-523C haplotype): 1.10
HR, primary outcome, atenolol vs. verapamil SR ([1]; non-carriers of ADRB2 46G-79G-523C haplotype): 0.59
Events/1000 Patient-Years [1, 4]: 10.6 Events/1000 Patient-Years
Events/1000 Patient-Years ([1]; primary outcome, 1 GGC copy): 15.1 Events/1000 Patient-Years
Events/1000 Patient-Years ([1]; primary outcome, 2 GGC copies): 23.5 Events/1000 Patient-Years
Events/1000 Patient-Years ([1]; primary outcome, All Patients): 13.6 Events/1000 Patient-Years
HR, KCNMB1 codon 110 (Leu110) variant allele on primary outcome, separately by treatment strategy [1]: 0.84
RR: BB vs CCB by genotype, Death ([2]; CACNA1C rs1051375): 0.50
RR: BB vs CCB by genotype, MI ([2]; CACNA1C rs1051375): 0.39
RR: BB vs CCB by genotype, Stroke ([2]; CACNA1C rs1051375): 0.38
SNP effect in arm (OR, 95% CI), Death ([2]; CACNA1C rs1051375): 0.64 (0.37-1.12)
SNP effect in arm (OR, 95% CI), MI ([2]; CACNA1C rs1051375): 0.38 (0.22-0.68)
SNP effect in arm (OR, 95% CI), Stroke ([2]; CACNA1C rs10848683): 0.706 (0.375, 1.329)
Total Number of Events ([2]; All subjects (n = 935)): 113
Total Number of Events ([2]; LTA4H AA (n = 469)): 41
Total Number of Events [2, 5]: 63
OR, effect of CACNB2 rs2357928 genotype on the primary outcome, by treatment [2]: 0.50
OR, ALOX5 promoter polymorphism variant carriers, adverse cardiovascular outcomes, By Drug Therapy [2]: 1.577
covariate-adjusted systolic blood pressure reduction ([3]; 1 copy GEC, 6 weeks): −7.9 mmHg
covariate-adjusted systolic blood pressure reduction ([3]; 2 copies GEC, 6 weeks): −6.7 mmHg
patients who achieved sustained blood pressure control ([3]; 619 blood pressure response study patients): 79.8%
mean systolic blood pressure after 6 weeks of treatment ([3]; 619 patients whose BP change could be attributed to atenolol, mean±SD): 139.7±18.3 mmHg
mean reduction in diastolic blood pressure ([3]; 619 patients, 6 weeks): −6.2±10.3 mmHg
mean reduction in systolic blood pressure ([3]; 619 patients, 6 weeks): −11.1±19.5 mmHg
mean diastolic blood pressure after 6 weeks of treatment ([3]; 619 patients, mean±SD): 80.4±9.9 mmHg
patients who achieved sustained blood pressure control ([3]; 2,772 patients with complete genotype data, <140/90 mmHg): 75.0%
Covariate-Adjusted Decline in blood pressure, Diastolic ([3]; ADRB2 C523A AA): −7.4 mmHg
Covariate-Adjusted Decline in blood pressure, Systolic ([3]; ADRB2 C523A AA): −15.2 mmHg
Covariate-Adjusted Decline in blood pressure, Diastolic ([3]; ADRB2 C523A CA): −4.5 mmHg
Covariate-Adjusted Decline in blood pressure, Systolic ([3]; ADRB2 C523A CA): −9.9 mmHg
Covariate-Adjusted Decline in blood pressure, Diastolic ([3]; ADRB2 C523A CC): −5.1 mmHg
Covariate-Adjusted Decline in blood pressure, Systolic ([3]; ADRB2 C523A CC): −8.2 mmHg
Covariate-Adjusted Decline in blood pressure, Diastolic ([3]; ADRB2 Gln27Glu GlnGln): −5.9 mmHg
Covariate-Adjusted Decline in blood pressure, Systolic ([3]; ADRB2 Gln27Glu GlnGln): −11.2 mmHg
Covariate-Adjusted Decline in blood pressure, Diastolic ([3]; ADRB2 Gln27Glu GlnGlu): −4.8 mmHg
Covariate-Adjusted Decline in blood pressure, Systolic ([3]; ADRB2 Gln27Glu GlnGlu): −8.8 mmHg
Covariate-Adjusted Decline in blood pressure, Diastolic ([3]; ADRB2 Gln27Glu GluGlu): −3.4 mmHg
Covariate-Adjusted Decline in blood pressure, Systolic ([3]; ADRB2 Gln27Glu GluGlu): −6.0 mmHg
Covariate-Adjusted Decline in blood pressure, Diastolic ([3]; ADRB2 Gly16Arg ArgArg): −4.9 mmHg
Covariate-Adjusted Decline in blood pressure, Systolic ([3]; ADRB2 Gly16Arg ArgArg): −8.0 mmHg
Covariate-Adjusted Decline in blood pressure, Diastolic ([3]; ADRB2 Gly16Arg GlyArg): −5.9 mmHg
Covariate-Adjusted Decline in blood pressure, Systolic ([3]; ADRB2 Gly16Arg GlyArg): −10.9 mmHg
Covariate-Adjusted Decline in blood pressure, Diastolic ([3]; ADRB2 Gly16Arg GlyGly): −4.2 mmHg
Covariate-Adjusted Decline in blood pressure, Systolic ([3]; ADRB2 Gly16Arg GlyGly): −9.0 mmHg
DBP at 12 months, mean (SD) [3, 6]: 78.3 mmHg
DBP at 24 months, mean (SD) [3, 6]: 77.7 mmHg
SBP at 12 months, mean (SD) [3, 6]: 134.0 mmHg
SBP at 24 months, mean (SD) [3, 6]: 132.3 mmHg
Percent of visits with blood pressure in control, mean (SD) ([3]; Patients on Atenolol (N = 2,830), atenolol-based strategy, SBP < 140 and DBP < 90 mmHg): 59.4
BP in control at 12 months, No. [3, 7]: 1725
BP in control at 24 months, No. [3, 7]: 1695
BP in control at 12 months, (%) ([3]; Patients on Atenolol, percentage of patients at risk at 12 months): (66.0) %
BP in control at 24 months, (%) ([3]; Patients on Atenolol, percentage of patients at risk at 24 months): (69.5) %
Association of ADRB1 haplotypes with blood pressure response to atenolol ([3]; p values >0.2): not significantly associated

NS(=O)(=O)c1cc2c(cc1Cl)NCNS2(=O)=O [diuretics, hydrochlorothiazide]
HR, interaction between ADD1 carrier status and diuretics ([1]; adjusted Cox PH model, primary outcome): 1.02
Time to primary outcome event, users vs non-users of diuretics ([1]; regardless of ADD1 variant carrier status, Kaplan Meier): not different

COc1ccc(CCN(C)CCCC(C#N)(c2ccc(OC)c(OC)c2)C(C)C)cc1OC (stereo not drawn) [verapamil SR, verapamil]
Incidence, All-cause Mortality ([1]; 0 copies ADRB2 46G-79G-523C): 7.3 per 1000 patient-years
Incidence, Nonfatal MI ([1]; 0 copies ADRB2 46G-79G-523C): 5.9 per 1000 patient-years
Incidence, Nonfatal Stroke ([1]; 0 copies ADRB2 46G-79G-523C): 5.1 per 1000 patient-years
Incidence, Primary Outcome ([1]; 0 copies ADRB2 46G-79G-523C): 18.3 per 1000 patient-years
Incidence, All-cause Mortality ([1]; 1 copy ADRB2 46G-79G-523C): 7.0 per 1000 patient-years
Incidence, Nonfatal MI ([1]; 1 copy ADRB2 46G-79G-523C): 2.9 per 1000 patient-years
Incidence, Nonfatal Stroke ([1]; 1 copy ADRB2 46G-79G-523C): 4.7 per 1000 patient-years
Incidence, Primary Outcome ([1]; 1 copy ADRB2 46G-79G-523C): 14.5 per 1000 patient-years
Incidence, All-cause Mortality ([1]; 2 copies ADRB2 46G-79G-523C): 4.2 per 1000 patient-years
Incidence, Nonfatal MI ([1]; 2 copies ADRB2 46G-79G-523C): 6.3 per 1000 patient-years
Incidence, Nonfatal Stroke ([1]; 2 copies ADRB2 46G-79G-523C): 6.3 per 1000 patient-years
Incidence, Primary Outcome ([1]; 2 copies ADRB2 46G-79G-523C): 17.0 per 1000 patient-years
Modification of the adverse effect of ADRB2 46G-79C-523C haplotype on primary outcome ([1]; Example 4): Neither atenolol nor verapamil SR modified the adverse effect of this haplotype
Systolic and diastolic blood pressure control ([1]; patients treated with verapamil vs atenolol, FIG. 23): did not differ
Events/1000 Patient-Years [1, 4]: 18.0 Events/1000 Patient-Years
Events/1000 Patient-Years ([1]; primary outcome, 1 GGC copy): 14.4 Events/1000 Patient-Years
Events/1000 Patient-Years ([1]; primary outcome, 2 GGC copies): 17.1 Events/1000 Patient-Years
Events/1000 Patient-Years ([1]; primary outcome, All Patients): 16.4 Events/1000 Patient-Years
HR, KCNMB1 codon 110 (Leu110) variant allele on primary outcome, separately by treatment strategy [1]: 0.55
HRadj, ADRB1 49S-389R haplotype on mortality, by treatment ([1]; within patients treated with the named drug): 8.00
systolic blood pressure response, average decrease (hypertensive subjects): 12 mmHg
Total Number of Events ([2]; All subjects (n = 935)): 137
Total Number of Events ([2]; LTA4H AA (n = 469)): 68
Total Number of Events [2, 5]: 60
OR, ALOX5 promoter polymorphism variant carriers, adverse cardiovascular outcomes, By Drug Therapy [2]: 1.964

verapamil [verapamil SR]
SNP effect in arm (OR, 95% CI), Death ([2]; CACNA1C rs1051375): 1.28 (0.82, 2.0)
SNP effect in arm (OR, 95% CI), MI ([2]; CACNA1C rs1051375): 0.97 (0.61-1.53)
SNP effect in arm (OR, 95% CI), Stroke ([2]; CACNA1C rs1051375): 1.83 (1.13-2.97)
SNP effect in arm (OR, 95% CI), Death ([2]; CACNA1C rs10848683): 0.659 (0.365, 1.192)
SNP effect in arm (OR, 95% CI), MI ([2]; CACNA1C rs10848683): 0.733 (0.415, 1.294)
SNP effect in arm (OR, 95% CI), Stroke ([2]; CACNA1C rs10848683): 1.340 (0.767, 2.341)
OR, effect of CACNB2 rs2357928 genotype on the primary outcome, by treatment [2]: 1.00
